Data published in ChEMBL document CHEMBL2074097, “Urate transport via human PAH transporter hOAT1 and its gene structure” (Kidney Int, 2003).

T1: Solute carrier family 22 member 6 (Homo sapiens, UniProt Q4U2R8)
T1 sequence (Q4U2R8 whole entry): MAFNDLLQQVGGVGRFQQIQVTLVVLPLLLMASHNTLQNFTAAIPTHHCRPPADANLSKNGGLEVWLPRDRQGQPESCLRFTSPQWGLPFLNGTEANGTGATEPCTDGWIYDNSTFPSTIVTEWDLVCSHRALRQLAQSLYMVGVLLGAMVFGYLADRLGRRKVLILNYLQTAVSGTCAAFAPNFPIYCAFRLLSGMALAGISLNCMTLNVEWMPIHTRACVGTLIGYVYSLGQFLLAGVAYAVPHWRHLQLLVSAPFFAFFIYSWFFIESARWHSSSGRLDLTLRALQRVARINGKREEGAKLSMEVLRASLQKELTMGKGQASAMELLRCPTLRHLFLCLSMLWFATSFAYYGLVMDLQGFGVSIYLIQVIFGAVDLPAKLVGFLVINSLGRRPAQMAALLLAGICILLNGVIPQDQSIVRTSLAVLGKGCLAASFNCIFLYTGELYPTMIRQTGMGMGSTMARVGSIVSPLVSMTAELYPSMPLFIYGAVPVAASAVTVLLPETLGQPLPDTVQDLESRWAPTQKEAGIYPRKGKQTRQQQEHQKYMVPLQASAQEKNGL


Experiments:
[1] = target: T1, Solute carrier family 22 member 6; test: TP_TRANSPORTER: inhibition of Urate uptake (Urate: 300 uM, alpha-KG: 2000 uM) in OAT1-expressing S2 cells; type: functional, cell-based; design: scale not given: the % may be the effect or the level left; settings: s2, 2000 µM
[2] = substrate: O=c1[nH]c(=O)c2[nH]c(=O)[nH]c2[nH]1; test: TP_TRANSPORTER: uptake in OAT1-expressing S2 cells; type: functional, cell-based

Row | Activity [1] | Molecule | Km [2]
1 | 12.4% | O=C(O)CCC(=O)C(=O)O [ALPHA-KETOGLUTARIC ACID] | 
2 |  | Solute carrier family 22 member 6 (Homo sapiens) (protein) MAFNDLLQQVGGVGRFQQIQVTLVVLPLLLMASHNTLQNFTAAIPTHHCRPPADANLSKNGGLEVWLPRDRQGQPESCLRFTSPQWGLPFLNGTEANGTGATEPCTDGWIYDNSTFPSTIVTEWDLVCSHRALRQLAQSLYMVGVLLGAMVFGYLADRLGRRKVLILNYLQTAVSGTCAAFAPNFPIYCAFRLLSGMALAGISLNCMTLNVEWMPIHTRACVGTLIGYVYSLGQFLLAGVAYAVPHWRHLQLLVSAPFFAFFIYSWFFIESARWHSSSGRLDLTLRALQRVARINGKREEGAKLSMEVLRASLQKELTMGKGQASAMELLRCPTLRHLFLCLSMLWFATSFAYYGLVMDLQGFGVSIYLIQVIFGAVDLPAKLVGFLVINSLGRRPAQMAALLLAGICILLNGVIPQDQSIVRTSLAVLGKGCLAASFNCIFLYTGELYPTMIRQTGMGMGSTMARVGSIVSPLVSMTAELYPSMPLFIYGAVPVAASAVTVLLPETLGQPLPDTVQDLESRWAPTQKEAGIYPRKGKQTRQQQEHQKYMVPLQASAQEKNGL | 947 µM
